Measurements from patent US20240182420A1, “MICROBIOCIDAL ISONICOTINIC AMIDE DERIVATIVES” (SYNGENTA CROP PROTECTION AG, priority 2021, published 2024).

Experiments:
[1] = tested on: Phaeosphaeria nodorum syn. Septoria nodorum; assay: Phaeosphaeria nodorum syn. Septoria nodorum (glume blotch of wheat), wheat leaf segments, preventive; format: in vivo; settings: Parastagonospora nodorum, foliar, 96 h, assessed 4 dpi, vs untreated control
Experimental: (§1) Wheat leaf segments are placed on agar in multiwell plates (24-well format) and sprayed with test solutions. After drying, the leaf disks are inoculated with a spore suspension of the fungus. After appropriate incubation the activity of a compound is assessed 4 dpi (days after inoculation) as preventive fungicidal activity.
The following compounds from Table T1 gave at least 80% control of Phaeosphaeria nodorum at 200 ppm when compared to untreated control under the same conditions, which sowed extensive disease development: • 1.1, 1.3, 1.7, 1.14, 1.39, 1.41, 1.86, 1.87, 1.92, 1.94, 1.95.

[2] = tested on: Glomerella lagenarium syn Colletotrichum lagenarium; assay: Glomerella lagenarium syn. Colletotrichum lagenarium (anthracnose), liquid culture growth inhibition; format: cell-based; settings: Colletotrichum orbiculare, PDB nutrient broth, 24° C., 72 hrs, 620 nm, vs untreated control
Experimental: (§2) Conidia of the fungus from cryogenic storage were directly mixed into nutrient broth (PDB potato dextrose broth). A DMSO solution of the test compounds was placed into a microtiter plate (96-well format) and the nutrient broth containing the fungal spores was added to it. The test plates were incubated at 24° C. and the inhibition of growth was determined photometrically after 72 hrs at 620 nm.

Pyrenophora teres = Pyrenophora teres (net blotch of barley), barley leaf segments, preventive; format: in vivo; settings: foliar, 96 h, assessed 4 dpi, vs untreated control
Experimental: as §1, with “Barley” for “Wheat”, “incubation,” for “incubation”

[3] = tested on: Monographella nivalis syn. Microdochium nivale, Fusarium nivale; assay: Monographella nivalis syn. Microdochium nivale (snow mould, foot rot), liquid culture growth inhibition; format: cell-based; settings: PDB nutrient broth, 24° C., 72 hrs, 620 nm, vs untreated control
Experimental: as §2

Alternaria solani = Alternaria solani (early blight of tomato), tomato leaf disks, preventive; format: in vivo; settings: foliar, 96 h, assessed 4 dpi, vs untreated control
Experimental: Tomato leaf disks are placed on water agar in multiwell plates (24-well format) and sprayed with test solutions. After drying, the leaf disks are inoculated with a spore suspension of the fungus. After appropriate incubation the activity of a compound is assessed 4 dpi (days post inoculation) as preventive fungicidal activity.

[4] = tested on: Botryotinia fuckeliana syn. Botrytis cinerea; assay: Botryotinia fuckeliana syn. Botrytis cinerea (gray mould), liquid culture growth inhibition; format: cell-based; settings: PDB nutrient broth, 24° C., 72 hrs, photometric, vs untreated control
Experimental: as §2, with “hrs.” for “hrs at 620 nm.”

Sclerotinia sclerotiorum = Sclerotinia sclerotiorum (cottony rot, white mold), liquid culture growth inhibition; format: cell-based; settings: PDB nutrient broth, 24° C., 72 hrs, 620 nm, vs untreated control
Experimental: as §2, with “Mycelial fragments” for “Conidia”, “fungus prepared” for “fungus”, “a fresh liquid culture” for “cryogenic storage”

[5] = tested on: Botryotinia fuckeliana syn. Botrytis cinerea; assay: Botryotinia fuckeliana syn. Botrytis cinerea (grey mold on tomato), tomato plants; format: in vivo; settings: tomato plants cv. Roter Gnom, inoculated two days after application, leaf area covered by disease 5-6 days after application
Experimental: 4-week old tomato plants cv. Roter Gnom are treated sprayed in a spray chamber with the formulated test compound diluted in water. The test plants are inoculated by spraying them with a spore suspension two days after application. The inoculated test plants are incubated at 20° C. and 95% rh in a greenhouse and the percentage leaf area covered by disease is assessed when an appropriate level of disease appears on untreated check plants (5-6 days after application).

Row | SMILES | pest or weed control at 200 ppm [1] [%] | inhibition of growth at 20 ppm [2] [%] | pest or weed control at 200 ppm (Pyrenophora teres) [%] | inhibition of growth at 20 ppm [3] [%] | pest or weed control at 200 ppm (Alternaria solani) [%] | inhibition of growth at 20 ppm [4] [%] | inhibition of growth at 20 ppm (Sclerotinia sclerotiorum) [%] | pest or weed control at 200 ppm [5] [%]
1 | Cc1cncc(Oc2cccc(C3CC3)c2)c1C(=O)NC[C@H](F)c1ccc(Cl)cc1Cl [Compound 1.94, 3-(3-cyclopropyl-phenoxy)-N-[(2R)-2-(2,4-dichlorophenyl)-2-fluoro-ethyl]-5-methyl-pyridine-4-carboxamide] | ≥ 80 | ≥ 80 | ≥ 80 | ≥ 80 | ≥ 80 | ≥ 80 | ≥ 80 | 
2 | Cc1cc(C(=O)NC[C@@H](F)c2ccc(Cl)cc2Cl)c(Oc2cccc(C3CC3)c2)cn1 [Compound 1.41, 5-(3-cyclopropyl-phenoxy)-N-[(2S)-2-(2,4-dichlorophenyl)-2-fluoro-ethyl]-2-methyl-pyridine-4-carboxamide] | ≥ 80 | ≥ 80 | ≥ 80 | ≥ 80 | ≥ 80 | ≥ 80 | ≥ 80 | ≥ 50
3 | Cc1ccc(C(F)CNC(=O)c2cc(C)ncc2Oc2cccc(C3CC3)c2)c(C)c1 (centres unmarked) [Compound 1.39, 5-(3-cyclopropyl-phenoxy)-N-[2-(2,4-dimethylphenyl)-2-fluoro-ethyl]-2-methyl-pyridine-4-carboxamide] | ≥ 80 | ≥ 80 | ≥ 80 | ≥ 80 | ≥ 80 | ≥ 80 | ≥ 80 | ≥ 50
4 | C#Cc1cncc(Oc2cccc(C3CC3)c2)c1C(=O)NCC(F)c1ccc(Cl)cc1Cl (centres unmarked) [Compound 1.87, 3-(3-cyclopropyl-phenoxy)-N-[2-(2,4-dichlorophenyl)-2-fluoro-ethyl]-5-ethynyl-pyridine-4-carboxamide] | ≥ 80 | ≥ 80 | ≥ 80 | ≥ 80 | ≥ 80 | ≥ 80 | ≥ 80 | ≥ 50
5 | C=C(C)COc1cncc(Oc2cccc(C3CC3)c2)c1C(=O)NCC(F)c1ccc(Cl)cc1Cl (centres unmarked) [Compound 1.85, 3-(3-cyclopropyl-phenoxy)-N-[2-(2,4-dichlorophenyl)-2-fluoro-ethyl]-5-(2-methylallyloxy) pyridine-4-carboxamide] |  | ≥ 80 | ≥ 80 | ≥ 80 |  | ≥ 80 | ≥ 80 | ≥ 50
6 | C#CC(C)(C)Oc1cncc(Oc2cccc(C3CC3)c2)c1C(=O)NCCc1ccc(Cl)cc1Cl [Compound 1.88, 3-(3-cyclopropyl-phenoxy)-N-[2-(2,4-dichlorophenyl)ethyl]-5-(1,1-dimethylprop-2-ynoxy)pyridine-4-carboxamide] |  | ≥ 80 | ≥ 80 | ≥ 80 |  | ≥ 80 | ≥ 80 | ≥ 50
7 | Cc1cc(C(=O)NCC(F)c2ccc(Cl)cc2Cl)c(Oc2cccc(C3CC3)c2)cn1 (centres unmarked) [Compound 1.14, 5-(3-cyclopropyl-phenoxy)-N-[2-(2,4-dichlorophenyl)-2-fluoro-ethyl]-2-methyl-pyridine-4-carboxamide] | ≥ 80 | ≥ 80 | ≥ 80 | ≥ 80 | ≥ 80 | ≥ 80 | ≥ 80 | ≥ 50
8 | Cc1cccc(Oc2cnc(Cl)cc2C(=O)NCC(F)c2ccc(Cl)cc2Cl)c1 (centres unmarked) [Compound 1.3, 2-chloro-N-[2-(2,4-dichlorophenyl)-2-fluoro-ethyl]-5-(3-methylphenoxy) pyridine-4-carboxamide] | ≥ 80 | ≥ 80 | ≥ 80 |  |  | ≥ 80 | ≥ 80 | ≥ 50
9 | Cc1cccc(Oc2cnc(C)cc2C(=O)NCC(F)c2ccc(Cl)cc2Cl)c1 (centres unmarked) [Compound 1.1, N-[2-(2,4-dichlorophenyl)-2-fluoro-ethyl]-2-methyl-5-(3-methylphenoxy)pyridine-4-carboxamide] | ≥ 80 | ≥ 80 | ≥ 80 | ≥ 80 | ≥ 80 | ≥ 80 | ≥ 80 | ≥ 50
